Consider two compounds from patent publication US9309220B2, “Processes for the preparation of (S)-3-(4- (4-(morpholinomethyl)benzyl)oxy)-1-oxoisoindolin-2-yl)piperidine-2,6-dione and pharmaceutically acceptable forms thereof” (Celgene Corporation, priority 2012, dated 2016).

Structures can show the parent of a compound that is named as a salt.

The series is described as follows: eutectic enantioexcess (eeeu) / eutectic solubility of (S)-enantiomer form with corresponding racemic compound. The series is classed as physicochemical. How it is done: The majority of racemic mixtures preferentially form racemic compounds (reference Jacques book). The saturation solubility of a racemic compound and the pure enantiomer in the presence of a solvent is known as the eutectic point. The ratio of the solubility, i.e., the “eutectic enantioexcess” (eeeu), is a useful parameter to assess the chiral upgrade capability for a given system. The eeeu is calculated from the relative solubility of the R- and S-enantiomers: eeeu=([major]−[minor])/([major]+[minor]), where [major] is the solubility of the major enantiomer at the eutectic, and [minor] is the solubility of the minor enantiomer at the eutectic. […] The eeeu can be dependent on temperature in all cases. […]
Physical characterization confirmed that the HCl salt of the racemic compound was a hydrate, which was determined to be a thermodynamically stable crystal form. […] The quantities of solvent and equipment capacity needed to provide chiral upgrade would be impractical and uneconomical. For instance, to upgrade from 90% ee to 98% ee, it was calculated to require 200 L solvent per kg starting material.
From this eeeu, it was calculated that achieving an upgrade from 90% ee to 98% ee would require 46 L solvent per kg starting material which, while an improvement, is still undesirable. […]

Take `O=C1CC[C@H](N2Cc3c(OCc4ccc(CN5CCOCC5)cc4)cccc3C2=O)C(=O)N1` [(S)-3-(4-((4-(morpholinomethyl)benzyl)oxy)-1-oxoisoindolin-2-yl)piperidine-2,6-dione hydrochloride]: the absolute solubility entry is listed as “quite low”.

For `O.O=C1CC[C@H](N2Cc3c(OCc4ccc(CN5CCOCC5)cc4)cccc3C2=O)C(=O)N1` [(S)-3-(4-((4-(morpholinomethyl)benzyl)oxy)-1-oxoisoindolin-2-yl)piperidine-2,6-dione hydrate], the “eutectic enantioexcess (eeeu)” value (hydrate with corresponding hydrate racemic compound, 22° C.) is given as 89.2%.
